According to ChEMBL document CHEMBL5316282, “Small-Molecule Cyanamide Pan-TEAD·YAP1 Covalent Antagonists” (J Med Chem, 2023):
Values belong to the compound of their own block, whether it stands above or below them. Active and inactive are the calls of the source. The rule behind the calls is not given here.

Tests used:
[1] = molecular target: T1, Transcriptional enhancer factor TEF-4 (Homo sapiens, UniProt Q15562); assay: Displacement of FAM- labeled YAP1 peptide (60 to 99 residues) from human TEAD2 (217 to 447 residues) expressed in Escherichia coli BL21 (DE3) cells incubated for 24 hrs by fluorescence polarization-based competitive binding assay
T1 sequence (Q15562 whole entry, the tested form may be a part): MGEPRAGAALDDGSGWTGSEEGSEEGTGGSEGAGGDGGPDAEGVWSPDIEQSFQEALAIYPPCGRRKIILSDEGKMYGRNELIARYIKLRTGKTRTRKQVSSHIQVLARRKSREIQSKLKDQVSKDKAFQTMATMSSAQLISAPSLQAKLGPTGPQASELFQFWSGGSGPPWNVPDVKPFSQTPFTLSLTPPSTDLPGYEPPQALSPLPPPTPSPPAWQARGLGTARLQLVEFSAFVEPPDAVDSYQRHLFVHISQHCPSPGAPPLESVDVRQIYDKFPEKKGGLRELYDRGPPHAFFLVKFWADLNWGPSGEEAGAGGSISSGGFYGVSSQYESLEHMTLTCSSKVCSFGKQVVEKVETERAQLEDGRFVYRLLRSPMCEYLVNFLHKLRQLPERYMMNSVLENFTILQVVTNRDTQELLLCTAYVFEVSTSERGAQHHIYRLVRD

[2] = molecular target: T2, Transcriptional enhancer factor TEF-1 (Homo sapiens, UniProt P28347); assay: Displacement of FAM- labeled YAP1 peptide (60 to 99 residues) from human TEAD1 (209 to 426 residues) expressed in Escherichia coli BL21 (DE3) cells incubated for 24 hrs by fluorescence polarization-based competitive binding assay; conditions: read-out: IC50
T2 sequence (P28347 whole entry, the tested form may be a part): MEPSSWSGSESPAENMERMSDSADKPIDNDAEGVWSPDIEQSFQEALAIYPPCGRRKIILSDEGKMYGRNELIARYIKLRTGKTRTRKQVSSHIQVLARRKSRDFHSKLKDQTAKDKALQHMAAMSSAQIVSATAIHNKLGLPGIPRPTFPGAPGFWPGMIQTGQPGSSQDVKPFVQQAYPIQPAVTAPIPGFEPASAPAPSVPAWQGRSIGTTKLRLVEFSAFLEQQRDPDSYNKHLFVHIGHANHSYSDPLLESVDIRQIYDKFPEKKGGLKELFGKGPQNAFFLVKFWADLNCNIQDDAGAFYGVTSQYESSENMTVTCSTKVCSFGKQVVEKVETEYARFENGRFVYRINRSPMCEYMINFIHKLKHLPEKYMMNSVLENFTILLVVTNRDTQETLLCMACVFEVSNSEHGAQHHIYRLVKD

[3] = tested on: Transcriptional enhancer factor TEF-3 (Homo sapiens), Q15561 [C367S]; assay: Displacement of FAM- labeled YAP1 peptide (60 to 99 residues) from human TEAD4 (217 to 434 residues) C367S mutant expressed in Escherichia coli BL21 (DE3) cells at 0.2 to 100 uM incubated for 24 hrs by fluorescence polarization-based competitive binding assay; conditions: dose 0.2-100 µM
Sequence of Transcriptional enhancer factor TEF-3 (Homo sapiens), Q15561 [C367S] (Q15561 whole entry C367S, the tested form may be a part): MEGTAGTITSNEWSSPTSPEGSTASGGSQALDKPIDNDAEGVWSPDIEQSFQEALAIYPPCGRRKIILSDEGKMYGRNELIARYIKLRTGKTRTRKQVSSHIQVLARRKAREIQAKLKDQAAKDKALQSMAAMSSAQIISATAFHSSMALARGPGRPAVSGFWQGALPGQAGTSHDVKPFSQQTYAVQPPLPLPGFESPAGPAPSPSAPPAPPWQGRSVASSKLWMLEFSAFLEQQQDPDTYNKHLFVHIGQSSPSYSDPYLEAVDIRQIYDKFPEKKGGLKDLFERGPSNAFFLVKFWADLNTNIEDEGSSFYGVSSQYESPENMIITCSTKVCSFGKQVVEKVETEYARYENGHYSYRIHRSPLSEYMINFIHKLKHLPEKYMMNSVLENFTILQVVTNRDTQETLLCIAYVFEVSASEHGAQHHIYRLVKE

[4] = molecular target: T1, Transcriptional enhancer factor TEF-4; assay: Inhibition of TEAD2 (unknown origin) transfected in human HEK293 cells co-transfected with renilla plasmid assessed as maximum inhibition of transcriptional activity at 10 uM incubated for 24 hrs by dual Glo-luciferase reporter assay relative to control; type: cell-based
[5] = molecular target: T1, Transcriptional enhancer factor TEF-4; assay: Displacement of FAM- labeled YAP1 peptide (60 to 99 residues) from human TEAD2 (217 to 447 residues) expressed in Escherichia coli BL21 (DE3) cells assessed as maximum inhibition at 0.2 to 100 uM incubated for 24 hrs by fluorescence polarization-based competitive binding assay relative to control; conditions: dose 0.2-100 µM
[6] = molecular target: T2, Transcriptional enhancer factor TEF-1; assay: Inhibition of TEAD1 (unknown origin) transfected in human HEK293 cells co-transfected with renilla plasmid assessed as maximum inhibition of transcriptional activity at 10 uM incubated for 24 hrs by dual Glo-luciferase reporter assay relative to control; type: cell-based
[7] = tested on: MDA-MB-468; assay: Inhibition of TEAD in human MDA-MB-468 cells assessed as maximal inhibition of CTGF transcriptional level at 0.01 to 100 uM incubated for 24 hrs by qRT-PCR assay relative to control; type: cell-based; conditions: dose 0.01-100 µM
[8] = molecular target: T3, Transcriptional enhancer factor TEF-3 (Homo sapiens, UniProt Q15561); assay: Displacement of FAM- labeled YAP1 peptide (60 to 99 residues) from human TEAD4 (217 to 434 residues) expressed in Escherichia coli BL21 (DE3) cells incubated for 24 hrs by fluorescence polarization-based competitive binding assay; conditions: read-out: IC50
T3 sequence (Q15561 whole entry, the tested form may be a part): as the sequence (Q15561 whole entry C367S, the tested form may be a part) above, with S367C counted along it

[9] = molecular target: T3, Transcriptional enhancer factor TEF-3; assay: Inhibition of TEAD4 (unknown origin) transfected in human HEK293 cells co-transfected with renilla plasmid assessed as maximum inhibition of transcriptional activity at 0.01 to 100 uM incubated for 24 hrs by dual Glo-luciferase reporter assay relative to control; type: cell-based; conditions: dose 0.01-100 µM
[10] = molecular target: T4, Transcriptional enhancer factor TEF-5 (Homo sapiens, UniProt Q99594); assay: Displacement of FAM- labeled YAP1 peptide (60 to 99 residues) from human TEAD3 (210 to 427 residues) expressed in Escherichia coli BL21 (DE3) cells incubated for 24 hrs by fluorescence polarization-based competitive binding assay
T4 sequence (Q99594 whole entry, the tested form may be a part): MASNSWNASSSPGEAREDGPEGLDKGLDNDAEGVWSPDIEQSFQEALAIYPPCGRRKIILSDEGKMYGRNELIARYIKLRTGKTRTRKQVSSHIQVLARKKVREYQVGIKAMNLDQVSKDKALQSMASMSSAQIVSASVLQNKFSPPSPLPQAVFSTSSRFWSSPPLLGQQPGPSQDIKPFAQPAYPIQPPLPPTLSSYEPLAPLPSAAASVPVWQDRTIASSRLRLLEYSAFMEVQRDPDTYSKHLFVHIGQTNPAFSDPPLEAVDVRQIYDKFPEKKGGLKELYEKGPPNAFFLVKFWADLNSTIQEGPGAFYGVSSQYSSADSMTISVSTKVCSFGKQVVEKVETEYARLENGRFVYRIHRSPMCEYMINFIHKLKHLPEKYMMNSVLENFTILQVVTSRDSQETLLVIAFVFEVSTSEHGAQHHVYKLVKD

[11] = molecular target: T3, Transcriptional enhancer factor TEF-3; assay: Inhibition of TEAD4 (unknown origin) transfected in human HEK293 cells co-transfected with renilla plasmid assessed as inhibition of transcriptional activity incubated for 24 hrs by dual Glo-luciferase reporter assay; type: cell-based
[12] = Inhibition of TEAD in human MDA-MB-468 cells assessed as inhibition of CTGF transcriptional level incubated for 24 hrs by qRT-PCR assay; type: cell-based
[13] = Antiproliferative activity against human SaOS-LM7 cells assessed as maximum inhibition of cell viability incubated for 3 days by MTS assay relative to control; type: functional; conditions: time 3 day
[14] = molecular target: T5, YAP1-TEAD4 (Homo sapiens) (UniProt P46937+Q15561); assay: Inhibition of NanoLuc-tagged TEAD4 (unknown origin)-Halo-Tagged YAP1 (unknown origin) protein-protein interaction transfected in HEK293 cells using furimazine as substrate at 10 uM incubated for 2 to 24 hrs by NanoBRET binding assay; type: cell-based; conditions: time 2-24 hrs, TDE = time-dependent effect
[15] = molecular target: T2, Transcriptional enhancer factor TEF-1; assay: Inhibition of TEAD1 (unknown origin) transfected in human HEK293 cells co-transfected with renilla plasmid assessed as maximum inhibition of transcriptional activity at 0.1 to 10 uM incubated for 24 hrs by dual Glo-luciferase reporter assay relative to control; type: cell-based; conditions: dose 0.1-10 µM
[16] = molecular target: T2, Transcriptional enhancer factor TEF-1; assay: Inhibition of TEAD1 (unknown origin) transfected in human HEK293 cells co-transfected with renilla plasmid assessed as inhibition of transcriptional activity incubated for 24 hrs by dual Glo-luciferase reporter assay; type: cell-based
[17] = molecular target: T5, YAP1-TEAD4 (Homo sapiens); assay: Inhibition of NanoLuc-tagged TEAD4 (unknown origin)-Halo-Tagged YAP1 (unknown origin) protein-protein interaction transfected in HEK293 cells using furimazine as substrate at 1.1 to 30 uM incubated for 24 hrs by NanoBRET binding assay; type: cell-based; conditions: dose 1.1-30 µM
[18] = molecular target: T6, Transcriptional coactivator YAP1/Transcriptional enhancer factor TEF-1 (Homo sapiens) (UniProt P46937+P28347); assay: Inhibition of NanoLuc-tagged TEAD1 (unknown origin)-Halo-Tagged YAP1 (unknown origin) protein-protein interaction transfected in HEK293 cells using furimazine as substrate at 10 uM incubated for 2 to 24 hrs by NanoBRET binding assay; type: cell-based; conditions: time 2-24 hrs, TDE = time-dependent effect
T6 sequence (P28347 whole entry, looked up): as the sequence (P28347 whole entry, the tested form may be a part) above
T6 sequence (P46937 whole entry, looked up): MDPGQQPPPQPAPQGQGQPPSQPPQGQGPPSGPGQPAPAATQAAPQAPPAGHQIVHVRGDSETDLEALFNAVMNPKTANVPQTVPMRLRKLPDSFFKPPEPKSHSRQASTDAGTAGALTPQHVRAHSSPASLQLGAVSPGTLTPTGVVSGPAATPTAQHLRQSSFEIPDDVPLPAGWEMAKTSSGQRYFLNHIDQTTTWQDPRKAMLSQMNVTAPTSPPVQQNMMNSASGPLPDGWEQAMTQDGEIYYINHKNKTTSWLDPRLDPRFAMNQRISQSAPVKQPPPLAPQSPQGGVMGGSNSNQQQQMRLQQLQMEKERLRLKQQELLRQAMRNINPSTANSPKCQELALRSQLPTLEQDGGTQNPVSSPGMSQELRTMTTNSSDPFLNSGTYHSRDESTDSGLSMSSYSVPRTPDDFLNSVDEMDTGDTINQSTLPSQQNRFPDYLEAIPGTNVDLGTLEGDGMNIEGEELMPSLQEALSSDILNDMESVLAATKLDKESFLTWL

[19] = molecular target: T4, Transcriptional enhancer factor TEF-5; assay: Inhibition of TEAD3 (unknown origin) transfected in human HEK293 cells co-transfected with renilla plasmid assessed as inhibition of transcriptional activity incubated for 24 hrs by dual Glo-luciferase reporter assay; type: cell-based
[20] = tested on: SAOS-2; assay: Antiproliferative activity against human SAOS-2 cells assessed as maximum inhibition of cell viability incubated for 3 days by MTS assay relative to control; type: functional; conditions: time 3 day
[21] = tested on: SAOS-2; assay: Antiproliferative activity against human SAOS-2 cells assessed as reduction in cell viability incubated for 3 days by MTS assay; type: functional, cell-based; conditions: SAOS-2, 72 h
[22] = molecular target: T5, YAP1-TEAD4 (Homo sapiens); assay: Inhibition of NanoLuc-tagged TEAD4 (unknown origin)-Halo-Tagged YAP1 (unknown origin) protein-protein interaction transfected in HEK293 cells using furimazine as substrate at 0.9 to 30 uM incubated for 24 hrs by NanoBRET binding assay; type: cell-based; conditions: dose 0.9-30 µM
[23] = Antiproliferative activity against human 90-8 cells assessed as reduction in cell viability incubated for 3 days by MTS assay; type: functional, cell-based; conditions: 90-8, 72 h
[24] = Antiproliferative activity against human ST88-14 cells assessed as reduction in cell viability incubated for 3 days by MTS assay; type: functional, cell-based; conditions: ST88-14, 72 h
[25] = Antiproliferative activity against human SaOS-LM7 cells assessed as reduction in cell viability incubated for 3 days by MTS assay; type: functional, cell-based; conditions: SaOS-LM7, 72 h
[26] = molecular target: T6, Transcriptional coactivator YAP1/Transcriptional enhancer factor TEF-1 (Homo sapiens); assay: Inhibition of NanoLuc-tagged TEAD1 (unknown origin)-Halo-Tagged YAP1 (unknown origin) protein-protein interaction transfected in HEK293 cells using furimazine as substrate at 1.1 to 30 uM incubated for 24 hrs by NanoBRET binding assay; type: cell-based; conditions: dose 1.1-30 µM
[27] = tested on: Huh-7; assay: Antiproliferative activity against human Huh-7 cells assessed as reduction in cell viability incubated for 3 days by MTS assay; type: functional, cell-based; conditions: Huh-7, 72 h
[28] = tested on: MDA-MB-468; assay: Antiproliferative activity against human MDA-MB-468 cells assessed as maximum inhibition of cell viability incubated for 3 days by MTS assay relative to control; type: functional, cell-based; conditions: time 3.0 day
[29] = molecular target: T3, Transcriptional enhancer factor TEF-3; assay: Displacement of FAM- labeled YAP1 peptide (60 to 99 residues) from human TEAD4 (217 to 434 residues) expressed in Escherichia coli BL21 (DE3) cells at 100 uM incubated for 24 hrs followed by dialysis buffer for 24 hrs
[30] = Antiproliferative activity against human ST88-14 cells assessed as maximum inhibition of cell viability incubated for 3 days by MTS assay relative to control; type: functional; conditions: time 3 day
[31] = molecular target: T5, YAP1-TEAD4 (Homo sapiens); assay: Inhibition of myc-tagged TEAD4 (unknown origin)-Flag-Tagged YAP1 (unknown origin) protein-protein interaction transfected in HEK293 cells using furimazine as substrate at 1.1 to 11 uM incubated for 24 hrs by pull-down coimmunoprecipitation assay; type: cell-based; conditions: dose 1.1-11 µM
[32] = molecular target: T1, Transcriptional enhancer factor TEF-4; assay: Inhibition of TEAD2 (unknown origin) transfected in human HEK293 cells co-transfected with renilla plasmid assessed as inhibition of transcriptional activity incubated for 24 hrs by dual Glo-luciferase reporter assay; type: cell-based
[33] = Antiproliferative activity against human 90-8 cells assessed as maximum inhibition of cell viability incubated for 3 days by MTS assay relative to control; type: functional; conditions: time 3 day
[34] = molecular target: T1, Transcriptional enhancer factor TEF-4; assay: Inhibition of TEAD2 (unknown origin) transfected in human HEK293 cells co-transfected with renilla plasmid assessed as maximum inhibition of transcriptional activity at 0.1 to 10 uM incubated for 24 hrs by dual Glo-luciferase reporter assay relative to control; type: cell-based; conditions: dose 0.1-10 µM
[35] = tested on: MDA-MB-468; assay: Antiproliferative activity against human MDA-MB-468 cells assessed as reduction in cell viability incubated for 3 days by MTS assay; type: functional, cell-based
[36] = molecular target: T3, Transcriptional enhancer factor TEF-3; assay: Inhibition of TEAD4 (unknown origin) transfected in human HEK293 cells co-transfected with renilla plasmid assessed as maximum inhibition of transcriptional activity at 0.1 to 10 uM incubated for 24 hrs by dual Glo-luciferase reporter assay relative to control; type: cell-based; conditions: dose 0.1-10 µM
[37] = tested on: Huh-7; assay: Antiproliferative activity against human Huh-7 cells assessed as maximum inhibition of cell viability incubated for 3 days by MTS assay relative to control; type: functional; conditions: time 3 day
[38] = Homo sapiens, MDA-MB-468, 24 h, read-out: IC50

- IC50 [1]: 2400 nM
- IC50 [2]: 200 nM
- inhibition [3]: inactive
- inhibition [4]: Active
- Imax [5]: 37%
- inhibition [6]: Active
- IC50 [8]: 600 nM
- Imax [9]: 35.6%
- IC50 [10]: Not Active
- IC50 ([11]; read-out: IC50): 700 nM
- IC50 [12, 38]: 300 nM
Structure (SMILES): N#CN1Cc2ccc(F)c(Nc3cccc(C(F)(F)F)c3)c2C1
- Imax [7]: 50.3%

- IC50 [1]: 16100 nM
- IC50 [2]: 1500 nM
- Imax [5]: 39%
- IC50 [8]: 20100 nM
- IC50 [10]: Not Active
- IC50 ([11]; hek293): Not Active
- IC50 ([12]; mda-mb-468): Not Active
Structure (SMILES): N#CN1CC2CCCC(Nc3ccc(C(F)(F)F)cc3)C2C1 (centres undefined)
- Imax [7]: inactive

- IC50 [1]: 1700 nM
- IC50 [2]: 300 nM
- inhibition [3]: inactive
- inhibition [4]: 50%
- Imax [5]: 42%
- inhibition [6]: inactive
- IC50 [8]: 200 nM
- Imax [9]: 41.3%
- IC50 [10]: Not Active
- IC50 ([11]; read-out: IC50): 300 nM
- IC50 [12, 38]: 300 nM
Structure (SMILES): COc1ccc2c(c1Nc1cccc(C(F)(F)F)c1)CN(C#N)C2
- Imax [7]: 45.3%

- inhibition [14]: Tde
- IC50 [1]: 1200 nM
- IC50 [2]: 900 nM
- Imax [15]: 51.2%
- inhibition [3]: inactive
- IC50 [16]: 5100 nM
- inhibition [17]: Active
- inhibition [4]: 40%
- inhibition [18]: Tde
- Imax [5]: 34%
- inhibition [6]: 40%
- IC50 [8]: 1100 nM
- IC50 [19]: 2200 nM
- Imax [9]: 46.6%
- inhibition [22]: Active
- IC50 [10]: Not Active
- inhibition [26]: Active
- IC50 [27]: 100 nM
- inhibition [29]: Active
- inhibition [31]: Dose-Dependent Effect
- IC50 [32]: 2700 nM
- Imax [34]: 42.7%
- IC50 [35]: Not Active
- IC50 ([11]; read-out: IC50): 5000 nM
- IC50 [12, 38]: 600 nM
- Imax [36]: 61.8%
Structure (SMILES): N#CN1Cc2cccc(Nc3cccc(C(F)(F)F)c3)c2C1
- Imax [13]: 60.7%
- Imax [7]: 65.7%
- Imax [20]: 53.4%
- IC50 [21]: 100 nM
- IC50 [23]: 3500 nM
- IC50 [24]: 30 nM
- IC50 [25]: 200 nM
- Imax [28]: inactive
- Imax [30]: 31%
- Imax [33]: 51.4%
- Imax [37]: 48.3%
